Measurements taken from patent US10167262B2, “Herbicidal substituted 3-arylpyrazoles” (FMC CORPORATION, priority 2014, dated 2019).

Legend:
Assay type in all cases: in vivo
[1] = tested on: barnyardgrass (Echinochloa crus-galli); assay: Test A pre-/postemergence greenhouse herbicide test, visual injury rating 0-100; conditions: 1000 g ai/ha
In short: (§1)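 Planting in a loam and sand mixture preceded a directed preemergence soil spray; postemergence spray was applied concurrently to one- to two-leaf plants. After roughly 10 days under glass, injury is scored visually against untreated controls, 0–100.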

corn (Zea mays) = assay: as above; conditions: 1000 g ai/ha
In short: as §1

[2] = tested on: giant foxtail (Setaria faberii); assay: as above; conditions: 1000 g ai/ha
In short: as §1

[3] = tested on: large (Lg) crabgrass (Digitaria sanguinalis); assay: as above; conditions: 1000 g ai/ha
In short: as §1

[4] = tested on: morningglory (Ipomoea spp.); assay: as above; conditions: 1000 g ai/ha
In short: as §1

[5] = tested on: pigweed (Amaranthus retroflexus); assay: as above; conditions: 1000 g ai/ha
In short: as §1

[6] = tested on: velvetleaf (Abutilon theophrasti); assay: as above; conditions: 1000 g ai/ha
In short: as §1

[7] = tested on: wheat (Triticum aestivum); assay: as above; conditions: 1000 g ai/ha
In short: as §1

[8] = tested on: Italian ryegrass (Lolium multiflorum); assay: Test C pre-/postemergence greenhouse test, plant response rating 0-100; conditions: Postemergence; for Plant response rating, Ryegrass, Italian: scale 0 to 100
From the text: (§2) Seeds of plant species selected from blackgrass (Alopecurus myosuroides), Italian ryegrass (Lolium multiflorum), winter wheat (Triticum aestivum), galium (catchweed bedstraw, Galium aparine), corn (Zea mays), large (Lg) crabgrass (Digitaria sanguinalis), giant foxtail (Setaria faberii), johnsongrass (Sorghum halepense), lambsquarters (Chenopodium album), morningglory (Ipomoea coccinea), yellow nutsedge (Cyperus esculentus), pigweed (Amaranthus retroflexus), ragweed (common ragweed, Ambrosia elatior), soybean (Glycine max), barnyardgrass (Echinochloa crus-galli), oilseed rape (Brassica napus), waterhemp (common waterhemp, Amaranthus rudis), and velvetleaf (Abutilon theophrasti) were planted into a blend of loam soil and sand and treated preemergence with test chemicals formulated in a non-phytotoxic solvent mixture which included a surfactant.
(§3) At the same time, plants selected from these crop and weed species and also winter barley (Hordeum vulgare), bermudagrass (Cynodon dactylon), downy bromegrass (Bromus tectorum), canarygrass (Phalaris minor), cocklebur (common cocklebur, Xanthium strumarium), woolly cupgrass (Eriochloa villosa), deadnettle (henbit deadnettle, Lamium amplexicaule), green foxtail (Setaria viridis), goosegrass (Eleusine indica), surinam grass (Brachiaria decumbens), windgrass (Apera spica-venti), chickweed (common chickweed, Stellaria media), kochia (Kochia scoparia), and wild oat (Avena fatua), were planted in pots containing Redi-Earth® planting medium (Scotts Company, 14111 Scottslawn Road, Marysville, Ohio 43041) comprising spaghnum peat moss, vermiculite, wetting agent and starter nutrients and treated with postemergence applications of test chemicals formulated in the same manner. Plants ranged in height from 2 to 18 cm (1- to 4-leaf stage) for postemergence treatments. Treated plants and controls were maintained in a greenhouse for 13 to 15 days, after which time all species were compared to controls and visually evaluated. Plant response ratings, summarized in Table C, are based on a scale of 0 to 100 where 0 is no effect and 100 is complete control. A dash (-) response means no test result.

[9] = tested on: galium (catchweed bedstraw, Galium aparine); assay: as above; conditions: Postemergence; for Plant response rating, Galium: scale 0 to 100
From the text: as §2, §3

[10] = tested on: ragweed (common ragweed, Ambrosia elatior); assay: as above; conditions: Postemergence; for Plant response rating, Ragweed: scale 0 to 100
From the text: as §2, §3

[11] = tested on: velvetleaf (Abutilon theophrasti); assay: as above; conditions: Postemergence; for Plant response rating, Velvetleaf: 250 g ai/ha, scale 0 to 100
From the text: as §2, §3

SMILES | Plant response rating (0 to 100 scale), Barnyardgrass ([1]; Postemergence) | Plant response rating (0 to 100 scale), Barnyardgrass ([1]; Preemergence) | Plant response rating (0 to 100 scale), Corn (corn (Zea mays); Postemergence) | Plant response rating (0 to 100 scale), Corn (corn (Zea mays); Preemergence) | Plant response rating (0 to 100 scale), Foxtail, Giant ([2]; Postemergence) | Plant response rating (0 to 100 scale), Foxtail, Giant ([2]; Preemergence) | Plant response rating (0 to 100 scale), Crabgrass, Large ([3]; Postemergence) | Plant response rating (0 to 100 scale), Crabgrass, Large ([3]; Preemergence) | Plant response rating (0 to 100 scale), Morningglory ([4]; Postemergence) | Plant response rating (0 to 100 scale), Morningglory ([4]; Preemergence) | Plant response rating (0 to 100 scale), Pigweed ([5]; Postemergence) | Plant response rating (0 to 100 scale), Pigweed ([5]; Preemergence) | Plant response rating (0 to 100 scale), Velvetleaf ([6]; Postemergence) | Plant response rating (0 to 100 scale), Velvetleaf ([6]; Preemergence) | Plant response rating (0 to 100 scale), Wheat ([7]; Postemergence) | Plant response rating (0 to 100 scale), Wheat ([7]; Preemergence) | Plant response rating (0 to 100), Ryegrass, Italian ([8]; 62 g ai/ha) | Plant response rating (0 to 100), Ryegrass, Italian ([8]; 125 g ai/ha) | Plant response rating, Ryegrass, Italian ([8]; 250 g ai/ha) | Plant response rating (0 to 100), Galium ([9]; 62 g ai/ha) | also measured
Cn1cc(C(=O)c2ccccc2)c(-c2cc(Br)cc(Br)c2)n1 [Compound 53] | 0 | 0 | 0 | 0 | 0 | 0 | 0 | 0 | 0 | 0 | 100 | 90 | 90 | 60 | 0 | 0 | 0 | 0 | 0 | 0 | Plant response rating, Ryegrass, Italian ([8]; 500 g ai/ha): 0; Plant response rating (0 to 100), Galium ([9]; 125 g ai/ha): 0; Plant response rating, Galium ([9]; 250 g ai/ha): 0; Plant response rating, Galium ([9]; 500 g ai/ha): 10; Plant response rating (0 to 100), Ragweed ([10]; 62 g ai/ha): 10; Plant response rating (0 to 100), Ragweed ([10]; 125 g ai/ha): 10; Plant response rating, Ragweed ([10]; 250 g ai/ha): 10; Plant response rating, Ragweed ([10]; 500 g ai/ha): 10; Plant response rating (0 to 100), Velvetleaf ([11]; 62 g ai/ha): 60; Plant response rating (0 to 100), Velvetleaf ([11]; 125 g ai/ha): 75; Plant response rating, Velvetleaf [11]: 90
Fc1ccccc1NN=C(c1ccccc1)c1c[nH]nc1-c1cc(Cl)cc(Cl)c1 [Compound 57] | 0 | 0 | 0 | 0 | 0 | 0 | 0 | 0 | 0 | 0 | 90 | 90 | 100 | 80 | 0 | 0 | 0 | 0 | 0 | 0 | Plant response rating (0 to 100), Galium ([9]; 31 g ai/ha): 0; Plant response rating (0 to 100), Galium ([9]; 125 g ai/ha): 0; Plant response rating, Galium ([9]; 250 g ai/ha): 0; Plant response rating (0 to 100), Ragweed ([10]; 62 g ai/ha): 15; Plant response rating (0 to 100), Ragweed ([10]; 125 g ai/ha): 65; Plant response rating, Ragweed ([10]; 250 g ai/ha): 70; Plant response rating (0 to 100), Velvetleaf ([11]; 62 g ai/ha): 70; Plant response rating (0 to 100), Velvetleaf ([11]; 125 g ai/ha): 80; Plant response rating, Velvetleaf [11]: 80
